{
  "source": "paper PMC6642116",
  "about": "“Structural and functional analyses of hepatitis B virus X protein BH3-like domain and Bcl-xL interaction” (Nature Communications, 2019)",
  "type_in_all_cases": "cell-based",
  "key": {"[1]": {"system": "HBV in HepG2.2.15 cells", "assay": "Inhibition of HBV in HepG2.2.15 cells by PEP-1 delivered peptides", "conditions": "for HBV DNA: HepG2.2.15 culture medium, peptide via PEP-1, 48 h; for HBsAg in culture medium: HepG2.2.15, peptide via PEP-1, 48 h", "description": "(§1) Fig. 6 The HBx-aa118–127 peptide, but not ABT-263, inhibits HBV replication and transcription in HepG2.2.15 cells. a HepG2.2.15 cells were treated with 125, 250, 500, and 1000 nM of ABT-263 for 2 days. Cytoplasmic HBV viral particles were isolated and the viral DNA replication intermediates were quantified (Methods). The results represent the fold change of the replicative intermediates in HepG2.2.15 cells from the indicated treatments, compared with those without treatment. b HepG2.2.15 cells were treated with the indicated concentrations of ABT-263 for 2 days. The lysate was analyzed by immunoblotting using antibodies to caspase-3 (CASP3) and GAPDH (glyceraldehyde 3-phosphate dehydrogenase). c, d The HBx-aa113–135, HBx-aa118–127, or the control peptides were delivered into HepG2.2.15 cells using PEP-1 nanoparticles (Methods). The levels of HBV DNA (c) and the levels of HBV S-antigen (HBsAg) expression (d) in culture medium collected from HepG2.2.15 cells were measured (Methods). The results are shown as fold change compared to that of the control peptide. e–g HepG2-NTCP cells were transfected with HBx118–127 peptide with concentration of […], and 50 μg/ml or unrelated control peptide during HBV infection (multiplicity of infection (MOI) = 200), respectively. e HBV e-antigen (HBeAg), f HBV DNA, and g cell viability were measured at day 8 after HBV infection. Data shown represent mean ± SD. Significance is indicated on the top. Not significant (ns): *P < 0.05, **P < 0.01; two-tailed unpaired t tests (n = 3 biologically independent samples). Source data are provided as a Source Data file\nTo evaluate the potential inhibitory effects of peptides on HBV replication and transcription in HepG2.2.15 cells, HepG2.2.15 cells were pre-seeded 24 h before peptides treatment. HBx-aa113–135, HBx-aa118–127, or control peptide was transfected through pep-1 carriers and incubated for additional 48 h without the removal of peptides. The culture media of HepG2.2.15 cells were then harvested for analysis.\n(§2) The levels of HBsAg, HBeAg, and HBcAg expression were measured by chemiluminescence, using Commercial Assay Kit (Wantai, Beijing, China). Northern blot analysis of HBV RNA, Southern blot analysis of HBV DNA, and real-time PCR quantification of HBV DNA are described in the Supplementary Methods."}, "[2]": {"system": "HepG2-NTCP cells", "assay": "Cell viability (CCK8 assay) of HBV-infected HepG2-NTCP cells", "design": "Cell viability: unit not given here", "conditions": "CCK8, unrelated control peptide, day 8", "description": "as §1\nHBx-aa118-127 peptide treatment.\nobvious cytotoxicity at concentrations between 12.5-200 µg/mL (Fig. 6g). Taken together, […]"}, "[3]": {"system": "HBV in HepG2-NTCP cells", "assay": "Inhibition of HBV infection in HepG2-NTCP cells by HBx118–127", "conditions": "unrelated control peptide, MOI 200, day 8", "description": "We took advantage of the structural information of the HBx-aa113–135/Bcl-xL complex to develop potential HBV inhibitors. […] BH3-only mimetics, […] and ABT-737, were included as controls. […] We also used HBV-infected HepG2-NTCP cells to evaluate the inhibitory effect of the HBx-aa118–127 peptide on HBV replication, by treating the cells with the peptide at 12.5, 50, and 200 µg/ml concentrations, respectively.\nCytoplasmic HBV viral particles were isolated and the viral DNA replication intermediates were quantified (Methods). […] The lysate was analyzed by immunoblotting using antibodies to caspase-3 (CASP3) and GAPDH (glyceraldehyde 3-phosphate dehydrogenase). c, d The HBx-aa113–135, HBx-aa118–127, or the control peptides were delivered into HepG2.2.15 cells using PEP-1 nanoparticles (Methods). The levels of HBV DNA (c) and the levels of HBV S-antigen (HBsAg) expression (d) in culture medium collected from HepG2.2.15 cells were measured (Methods). […] Data shown represent mean ± SD. Significance is indicated on the top. Not significant (ns): *P < 0.05, **P < 0.01; two-tailed unpaired t tests (n = 3 biologically independent samples). Source data are provided as a Source Data file\nas §2"}},
  "data": [
    {"substance": "SSTTSTGPCKTCTTPAQGTSMFP-K-biotin [Control, equal-length unrelated control biotin-labeled peptide]", "values": [
      {"measurement": "HBV DNA", "setting": "[1]; replicate 1", "value": "0.944 fold-change to control"},
      {"measurement": "HBV DNA", "setting": "[1]; replicate 2", "value": "1.019 fold-change to control"},
      {"measurement": "HBV DNA", "setting": "[1]; replicate 3", "value": "1.037 fold-change to control"},
      {"measurement": "HBsAg in culture medium", "setting": "[1]; replicate 1", "value": "1.097 fold-change to control"},
      {"measurement": "HBsAg in culture medium", "setting": "[1]; replicate 2", "value": "0.872 fold-change to control"},
      {"measurement": "HBsAg in culture medium", "setting": "[1]; replicate 3", "value": "1.030 fold-change to control"},
      {"measurement": "Cell viability", "setting": "[2]; replicate 1", "value": 102.557},
      {"measurement": "Cell viability", "setting": "[2]; replicate 2", "value": 97.209},
      {"measurement": "Cell viability", "setting": "[2]; replicate 3", "value": 100.234},
      {"measurement": "HBV DNA, HepG2-NTCP cell", "setting": "[3]; replicate 1", "value": "0.996 fold-change to control"},
      {"measurement": "HBeAg, HepG2-NTCP cell", "setting": "[3]; replicate 1", "value": "1.091 fold-change to control"},
      {"measurement": "HBV DNA, HepG2-NTCP cell", "setting": "[3]; replicate 2", "value": "0.822 fold-change to control"},
      {"measurement": "HBeAg, HepG2-NTCP cell", "setting": "[3]; replicate 2", "value": "1.003 fold-change to control"},
      {"measurement": "HBV DNA, HepG2-NTCP cell", "setting": "[3]; replicate 3", "value": "1.182 fold-change to control"},
      {"measurement": "HBeAg, HepG2-NTCP cell", "setting": "[3]; replicate 3", "value": "0.906 fold-change to control"}
    ]}
  ]
}
